In US20080312283A1, “Use of Hydroxylamine Derivates for Inhibiting Vitrectomy-Induced Cataracts” (Othera Pharmaceuticals, Inc., priority 2005, published 2008):

Tests used:
[1] = Ocular tissue, urine and plasma levels of total radioactivity following a single intravitreal dose; format: in vivo, New Zealand White rabbits
Experimental: A randomized, single treatment study, in nine groups of three NZW rabbits per group, was conducted. Animals were assigned to study groups by a computerized randomization program designed to achieve similar body weights per group. Naïve animals received an intra-vitreous injection of the test article at a nominal dose of 2.0 mg*eq [^14C]Tempol-H (1,4-dihydroxy-2,2,6,6-tetramethylpiperidine(2,4,6-^14C3)). A dose of 0.1 mL, containing 2.18 μCi was administered into both eyes. At nine specified time points post dose (1, 30, 60 minutes, 2, 4, 8, 24, 48, and 120 hours), three animals per group were euthanized and terminal samples were collected. The following tissues were harvested from each eye of all animals: aqueous humor, cornea, iris/ciliary body complex, vitreous humor, lens, retina-choroid plexus and optic nerve. Blood was collected from the marginal ear vein of all rabbits into tubes containing K3EDTA; urine was cage-collected daily from three animals up to 120 hour post dosing. Total radioactivity was determined in all samples by liquid scintillation counting.

lens epithelial cells = settings: Mitchell et al. 1991; Krishna et al. 1991; cited from earlier work
cataract = settings: Zigler et al., U.S. Pat. No. 6,001,853; cited from earlier work
[2] = tested on: retinal S-antigen-induced experimental autoimmune uveoretinitis (EAU); settings: systemic injection, rat model (Zamir et al. 1999); cited from earlier work
[3] = New Zealand White, rabbit, in vivo, 8 h

Row | Compound | concentration of radioactivity in the aqueous humor [1, 3] [μg eq/g] | concentration of radioactivity in the cornea [1, 3] [μg eq/g] | concentration of radioactivity in the iris/ciliary body [1, 3] [μg eq/g] | concentration of radioactivity in the lens [1, 3] [μg eq/g] | concentration of radioactivity in the optic nerve [1, 3] [μg eq/g] | concentration of radioactivity in the retina-choroid plexus [1, 3] [μg eq/g] | concentration of radioactivity in the vitreous humor [1, 3] [μg eq/g] | tissues with the highest concentrations of radioactivity ([1]; one minute post dosing, intravitreal) | levels of total radioactivity in sampled ocular tissues, blood and plasma ([1]; single intravitreal dose, all sampled ocular tissues, blood and plasma) | protection of lens epithelial cells from oxidative damage (lens epithelial cells) | anti-cataractogenic effect compared with the corresponding nitroxide (cataract) | severity of experimental autoimmune uveoretinitis [2]
1 | CC1(C)CC(O)CC(C)(C)N1O [Tempol-H, 1,4-dihydroxy-2,2,6,6-tetramethylpiperidine] | ~30±8 | ~2±0.1 | ~6±0.5 | ~41±6 | ~4±0.5 | ~18±2 | ~25±3 | retina-choroid plexus, vitreous humor and iris-ciliary body complex | Quantifiable levels of total radioactivity were observed in all sampled ocular tissues, blood and plasma | afforded no such protection | better anti-cataractogenic composition than the corresponding nitroxide | 
2 | CC1(C)CC(O)CC(C)(C)N1[O] [tempol, 4-hydroxy-2,2,6,6,-tetramethylpiperidine-1-N-oxyl] |  |  |  |  |  |  |  |  |  |  |  | reduced the severity
